{
  "source": "the NIST ThermoML archive (doi:10.1021/je1009976)",
  "test": "xn = mol fraction of the nth substance listed",
  "details": "101 kPa, Liquid; for mass density: Pycnometric method; for viscosity: Capillary tube (Ostwald / Ubbelohde) method",
  "note": "± gives the expanded uncertainty stated by the source.",
  "data": [
    {"smiles": "OCCOCCO", "note": "[diethylene glycol] + O", "values": [
      {"measurement": "mass density", "setting": "313.15 K, x1 = 0.05006", "value": "1023.67 ± 0.49", "unit": "kg/m3"},
      {"measurement": "mass density", "setting": "313.15 K, x1 = 0.1016", "value": "1046.02 ± 0.54", "unit": "kg/m3"},
      {"measurement": "mass density", "setting": "313.15 K, x1 = 0.1512", "value": "1062.04 ± 0.58", "unit": "kg/m3"},
      {"measurement": "mass density", "setting": "313.15 K, x1 = 0.2012", "value": "1071.77 ± 0.61", "unit": "kg/m3"},
      {"measurement": "mass density", "setting": "313.15 K, x1 = 0.2477", "value": "1079.42 ± 0.62", "unit": "kg/m3"},
      {"measurement": "mass density", "setting": "313.15 K, x1 = 0.298", "value": "1084.97 ± 0.61", "unit": "kg/m3"},
      {"measurement": "mass density", "setting": "313.15 K, x1 = 0.3505", "value": "1088.68 ± 0.65", "unit": "kg/m3"},
      {"measurement": "mass density", "setting": "313.15 K, x1 = 0.4483", "value": "1093.68 ± 0.67", "unit": "kg/m3"},
      {"measurement": "mass density", "setting": "313.15 K, x1 = 0.5421", "value": "1096.37 ± 0.65", "unit": "kg/m3"},
      {"measurement": "mass density", "setting": "313.15 K, x1 = 0.6518", "value": "1098.97 ± 0.67", "unit": "kg/m3"},
      {"measurement": "mass density", "setting": "313.15 K, x1 = 0.7525", "value": "1100.25 ± 0.7", "unit": "kg/m3"},
      {"measurement": "mass density", "setting": "313.15 K, x1 = 0.7864", "value": "1100.56 ± 0.7", "unit": "kg/m3"},
      {"measurement": "mass density", "setting": "313.15 K, x1 = 0.8499", "value": "1101.32 ± 0.71", "unit": "kg/m3"},
      {"measurement": "mass density", "setting": "313.15 K, x1 = 0.9005", "value": "1101.55 ± 0.72", "unit": "kg/m3"},
      {"measurement": "mass density", "setting": "313.15 K, x1 = 0.9503", "value": "1101.98 ± 0.74", "unit": "kg/m3"},
      {"measurement": "mass density", "setting": "313.15 K, x1 = 1", "value": "1102.11 ± 0.76", "unit": "kg/m3"},
      {"measurement": "viscosity", "setting": "318.15 K, x1 = 0.05006", "value": "1.091 ± 0.4", "unit": "mPa·s"},
      {"measurement": "viscosity", "setting": "318.15 K, x1 = 0.1016", "value": "1.729 ± 0.4", "unit": "mPa·s"},
      {"measurement": "viscosity", "setting": "318.15 K, x1 = 0.1512", "value": "2.459 ± 0.4", "unit": "mPa·s"},
      {"measurement": "viscosity", "setting": "318.15 K, x1 = 0.2012", "value": "3.286 ± 0.4", "unit": "mPa·s"},
      {"measurement": "viscosity", "setting": "318.15 K, x1 = 0.2477", "value": "4.052 ± 0.4", "unit": "mPa·s"},
      {"measurement": "viscosity", "setting": "318.15 K, x1 = 0.298", "value": "4.962 ± 0.4", "unit": "mPa·s"},
      {"measurement": "viscosity", "setting": "318.15 K, x1 = 0.3505", "value": "5.768 ± 0.4", "unit": "mPa·s"},
      {"measurement": "viscosity", "setting": "318.15 K, x1 = 0.4483", "value": "7.148 ± 0.4", "unit": "mPa·s"},
      {"measurement": "viscosity", "setting": "318.15 K, x1 = 0.5421", "value": "8.478 ± 0.41", "unit": "mPa·s"},
      {"measurement": "viscosity", "setting": "318.15 K, x1 = 0.6518", "value": "9.672 ± 0.41", "unit": "mPa·s"},
      {"measurement": "viscosity", "setting": "318.15 K, x1 = 0.7525", "value": "10.65 ± 0.41", "unit": "mPa·s"},
      {"measurement": "viscosity", "setting": "318.15 K, x1 = 0.7864", "value": "10.96 ± 0.41", "unit": "mPa·s"},
      {"measurement": "viscosity", "setting": "318.15 K, x1 = 0.8499", "value": "11.42 ± 0.41", "unit": "mPa·s"},
      {"measurement": "viscosity", "setting": "318.15 K, x1 = 0.9005", "value": "11.69 ± 0.41", "unit": "mPa·s"},
      {"measurement": "viscosity", "setting": "318.15 K, x1 = 0.9503", "value": "11.92 ± 0.42", "unit": "mPa·s"},
      {"measurement": "viscosity", "setting": "318.15 K, x1 = 1", "value": "12.19 ± 0.42", "unit": "mPa·s"},
      {"measurement": "mass density", "setting": "318.15 K, x1 = 0.05006", "value": "1021.08 ± 0.51", "unit": "kg/m3"},
      {"measurement": "mass density", "setting": "318.15 K, x1 = 0.1016", "value": "1043.03 ± 0.55", "unit": "kg/m3"},
      {"measurement": "mass density", "setting": "318.15 K, x1 = 0.1512", "value": "1058.72 ± 0.6", "unit": "kg/m3"},
      {"measurement": "mass density", "setting": "318.15 K, x1 = 0.2012", "value": "1068.24 ± 0.63", "unit": "kg/m3"},
      {"measurement": "mass density", "setting": "318.15 K, x1 = 0.2477", "value": "1075.76 ± 0.63", "unit": "kg/m3"},
      {"measurement": "mass density", "setting": "318.15 K, x1 = 0.298", "value": "1081.58 ± 0.65", "unit": "kg/m3"},
      {"measurement": "mass density", "setting": "318.15 K, x1 = 0.3505", "value": "1084.97 ± 0.65", "unit": "kg/m3"},
      {"measurement": "mass density", "setting": "318.15 K, x1 = 0.4483", "value": "1089.91 ± 0.67", "unit": "kg/m3"},
      {"measurement": "mass density", "setting": "318.15 K, x1 = 0.5421", "value": "1092.91 ± 0.67", "unit": "kg/m3"},
      {"measurement": "mass density", "setting": "318.15 K, x1 = 0.6518", "value": "1095.29 ± 0.7", "unit": "kg/m3"},
      {"measurement": "mass density", "setting": "318.15 K, x1 = 0.7525", "value": "1096.58 ± 0.68", "unit": "kg/m3"},
      {"measurement": "mass density", "setting": "318.15 K, x1 = 0.7864", "value": "1096.89 ± 0.7", "unit": "kg/m3"},
      {"measurement": "mass density", "setting": "318.15 K, x1 = 0.8499", "value": "1097.62 ± 0.72", "unit": "kg/m3"},
      {"measurement": "mass density", "setting": "318.15 K, x1 = 0.9005", "value": "1097.87 ± 0.73", "unit": "kg/m3"},
      {"measurement": "mass density", "setting": "318.15 K, x1 = 0.9503", "value": "1098.33 ± 0.75", "unit": "kg/m3"},
      {"measurement": "mass density", "setting": "318.15 K, x1 = 1", "value": "1098.35 ± 0.76", "unit": "kg/m3"},
      {"measurement": "viscosity", "setting": "323.15 K, x1 = 0.05006", "value": "0.985 ± 0.4", "unit": "mPa·s"},
      {"measurement": "viscosity", "setting": "323.15 K, x1 = 0.1016", "value": "1.535 ± 0.4", "unit": "mPa·s"},
      {"measurement": "viscosity", "setting": "323.15 K, x1 = 0.1512", "value": "2.161 ± 0.4", "unit": "mPa·s"},
      {"measurement": "viscosity", "setting": "323.15 K, x1 = 0.2012", "value": "2.846 ± 0.4", "unit": "mPa·s"},
      {"measurement": "viscosity", "setting": "323.15 K, x1 = 0.2477", "value": "3.506 ± 0.4", "unit": "mPa·s"},
      {"measurement": "viscosity", "setting": "323.15 K, x1 = 0.298", "value": "4.252 ± 0.4", "unit": "mPa·s"},
      {"measurement": "viscosity", "setting": "323.15 K, x1 = 0.3505", "value": "4.929 ± 0.4", "unit": "mPa·s"},
      {"measurement": "viscosity", "setting": "323.15 K, x1 = 0.4483", "value": "6.071 ± 0.4", "unit": "mPa·s"},
      {"measurement": "viscosity", "setting": "323.15 K, x1 = 0.5421", "value": "7.143 ± 0.41", "unit": "mPa·s"},
      {"measurement": "viscosity", "setting": "323.15 K, x1 = 0.6518", "value": "8.114 ± 0.41", "unit": "mPa·s"},
      {"measurement": "viscosity", "setting": "323.15 K, x1 = 0.7525", "value": "8.937 ± 0.41", "unit": "mPa·s"},
      {"measurement": "viscosity", "setting": "323.15 K, x1 = 0.7864", "value": "9.19 ± 0.41", "unit": "mPa·s"},
      {"measurement": "viscosity", "setting": "323.15 K, x1 = 0.8499", "value": "9.461 ± 0.41", "unit": "mPa·s"},
      {"measurement": "viscosity", "setting": "323.15 K, x1 = 0.9005", "value": "9.799 ± 0.41", "unit": "mPa·s"},
      {"measurement": "viscosity", "setting": "323.15 K, x1 = 0.9503", "value": "9.999 ± 0.41", "unit": "mPa·s"},
      {"measurement": "viscosity", "setting": "323.15 K, x1 = 1", "value": "10.19 ± 0.41", "unit": "mPa·s"},
      {"measurement": "mass density", "setting": "323.15 K, x1 = 0.05006", "value": "1018.36 ± 0.9", "unit": "kg/m3"},
      {"measurement": "mass density", "setting": "323.15 K, x1 = 0.1016", "value": "1039.94 ± 0.79", "unit": "kg/m3"},
      {"measurement": "mass density", "setting": "323.15 K, x1 = 0.1512", "value": "1055.2 ± 0.86", "unit": "kg/m3"},
      {"measurement": "mass density", "setting": "323.15 K, x1 = 0.2012", "value": "1064.5 ± 0.68", "unit": "kg/m3"},
      {"measurement": "mass density", "setting": "323.15 K, x1 = 0.2477", "value": "1072.18 ± 0.74", "unit": "kg/m3"},
      {"measurement": "mass density", "setting": "323.15 K, x1 = 0.298", "value": "1077.47 ± 0.77", "unit": "kg/m3"},
      {"measurement": "mass density", "setting": "323.15 K, x1 = 0.3505", "value": "1081.16 ± 0.72", "unit": "kg/m3"},
      {"measurement": "mass density", "setting": "323.15 K, x1 = 0.4483", "value": "1086.1 ± 0.75", "unit": "kg/m3"},
      {"measurement": "mass density", "setting": "323.15 K, x1 = 0.5421", "value": "1088.98 ± 0.73", "unit": "kg/m3"},
      {"measurement": "mass density", "setting": "323.15 K, x1 = 0.6518", "value": "1091.34 ± 0.73", "unit": "kg/m3"},
      {"measurement": "mass density", "setting": "323.15 K, x1 = 0.7525", "value": "1093.18 ± 0.7", "unit": "kg/m3"},
      {"measurement": "mass density", "setting": "323.15 K, x1 = 0.7864", "value": "1093.37 ± 0.69", "unit": "kg/m3"},
      {"measurement": "mass density", "setting": "323.15 K, x1 = 0.8499", "value": "1093.91 ± 0.74", "unit": "kg/m3"},
      {"measurement": "mass density", "setting": "323.15 K, x1 = 0.9005", "value": "1094.19 ± 0.74", "unit": "kg/m3"},
      {"measurement": "mass density", "setting": "323.15 K, x1 = 0.9503", "value": "1094.55 ± 0.76", "unit": "kg/m3"},
      {"measurement": "mass density", "setting": "323.15 K, x1 = 1", "value": "1094.94 ± 0.75", "unit": "kg/m3"}
    ]}
  ]
}
